Patent EP0965268B1, “Thermostabilization, osmoprotection, and protection against desiccation of enzymes, cell components and cells by di-glycerol-phosphate” (bitop Aktiengesellschaft für biotechnische Optimierung, priority 1998, dated 1999)

Legend:
[1] = molecular target: T1, Desulfovibrio gigas rubredoxin (Megalodesulfovibrio gigas, UniProt P00270); experiment: Thermal denaturation of rubredoxin, decrease in absorbance at 494 nm at 90°C; assay type: biochemical; details: 30 min incubation of rubredoxin at 90 °C, without solute 73%
T1 construct: Rubredoxin was obtained and purified as described by LeGall and Dragoni [15] from Desulfovibrio gigas; made in house; host or cells: Desulfovibrio gigas (natural source, not recombinant)
Method: Rubredoxin was obtained and purified as described by LeGall and Dragoni from Desulfovibrio gigas. This protein was then stored at -20°C in 10 mM Tris-HCl buffer at pH 7.6.
The most informative feature of the UV-Vis absorption spectrum of rubredoxins comes from the signals with maxima centered at 380, 494, and 570 nm which are attributed to metal to ligand transitions. These bands are bleached when rubredoxin undergoes de naturation.
In the experiments designed to evaluate denaturation caused by thermal stress, rubredoxin was prepared at a concentration of 84 µg . ml^-1 in 10 mM Tris-HCI buffer pH 7.6 and the incubation mixtures, with or without the additions of solutes, were placed in 400 µl quartz cells in a Beckman spectrophotometer with a thermostated cell compartment. The protein was subjected to a temperature of 90°C and the decrease in the absorbance at 494 nm was monitored as a function of time.
The protective effect of 1,1'-di-glycerol-phosphate (at a concentration of 100 mM) was compared with that of potassium phosphate (100 mM) and glycerol (200 mM) (Figure 4). After 30 min incubation of rubredoxin at 90 °C the absorbance decreased by only 8.5% when 1,1'-di-glycerol-phosphate was present, whereas in the absence of any solute a decrease of 73% was observed. […] In fact, the decreases in absorption are as high as 61 and 58 % in the presence of 200 mM glycerol or 100 mM potassium phosphate, respectively.

[2] = molecular target: T2, yeast alcohol dehydrogenase (ADH) (Saccharomyces cerevisiae, UniProt P00330); experiment: Thermostability of alcohol dehydrogenase, residual activity after incubation at 50°C; assay type: biochemical, baker's yeast; details: 10 min incubation at 50°C, without solute 33%
T2 construct: Alcohol dehydrogenase (Sigma, baker's yeast) was obtained in the lyophilized form and used without further purification; purchased Sigma; host or cells: baker's yeast
T2 sequence (P00330 2-348 limits assumed): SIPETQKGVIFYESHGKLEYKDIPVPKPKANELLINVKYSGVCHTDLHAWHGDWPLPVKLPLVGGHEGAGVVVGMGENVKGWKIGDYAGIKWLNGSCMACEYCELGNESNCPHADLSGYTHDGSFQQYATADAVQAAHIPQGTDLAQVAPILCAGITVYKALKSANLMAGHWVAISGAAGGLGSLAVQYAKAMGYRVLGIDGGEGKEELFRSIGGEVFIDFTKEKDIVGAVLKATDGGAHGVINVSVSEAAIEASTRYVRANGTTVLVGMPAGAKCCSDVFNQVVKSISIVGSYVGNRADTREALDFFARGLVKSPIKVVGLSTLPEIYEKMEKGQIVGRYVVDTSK
Method: (§1) Lactate dehydrogenase, LDH (Sigma Type III, rabbit muscle), purchased as a suspension in ammonium sulphate, was centrifuged, the supernatant was discarded, and the enzyme was suspended in 50 mM potassium phosphate pH 7.5. Alcohol dehydrogenase (Sigma, baker's yeast) was obtained in the lyophilized form and used without further purification. Enzymes were assayed using a Beckman spectrophotometer with a the rmostated cell compartment at 30°C.
(§2) In the experiments where thermal stress was imposed, enzymes were prepared at a concentration of 50 mg . ml^-1 in 20 mM potassium phosphate buffer, and the reaction mixtures were placed in Eppendorf tubes, incubated in a water-bath at 50°C for 10 minutes, cooled in an ice-bath and assayed immediately under standard conditions.
(§3) The effect of 1,1'-di-glycerol-phosphate on the thermostability of rabbit muscle LDH and baker's yeast ADH was compared to that of glycerol, a compound that is generally described as an enzyme protector. The percentage of residual activity in relation to pre-incubation activity, measured after 10 min of incubation at 50°C, is shown in Figure 5, for rabbit muscle LDH (A) and yeast ADH (B).

[3] = molecular target: T3, rabbit muscle lactate dehydrogenase (LDH) (Oryctolagus cuniculus, UniProt P13491); experiment: Thermostability of lactate dehydrogenase, residual activity after incubation at 50°C; assay type: biochemical; details: 100 mM solute; 10 min of incubation at 50°C; without solute 30%
T3 construct: Lactate dehydrogenase, LDH (Sigma Type III, rabbit muscle), purchased as a suspension in ammonium sulphate; purchased Sigma Type III; host or cells: rabbit muscle
Method: as §1, §2, §3
The effect of the concentration of 1,1'-di-glycerol-phosphate on the thermal stability of LDH was also monitored, and the results obtained after 10 min incubation at 50°C are shown in Figure 6. […]

T1 sequence (P00270 whole entry): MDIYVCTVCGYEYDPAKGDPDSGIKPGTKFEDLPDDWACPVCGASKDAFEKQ

SMILES	decrease in absorbance at 494 nm ([1]; 100 mM solute)	activity retained (of the initial activity) ([2]; 200 mM solute)	residual activity in relation to pre-incubation activity [3]	decrease in absorbance at 494 nm ([1]; 200 mM solute)	activity retained (of the initial activity) ([2]; 100 mM solute)
O=P(O)(O)O [potassium phosphate]	58%	–	–	–	–
OCC(O)CO [glycerol]	–	31%	37%	61%	–
O=P(O)(OCC(O)CO)OCC(O)CO (stereo not shown) [1,1'-di-glycerol-phosphate]	8.5%	–	85%	–	88%
